Results taken from paper PMC3731424 (Biochemistry, 2013).
Where two headings read alike, the source gives them in different places.

Assays:
B. subtilis PBP4a = B. subtilis PBP4a (Bacillus subtilis, UniProt P39844); assay: Inhibition of B. subtilis PBP4a, competition with substrate 14; assay type: biochemical
[1] = molecular target: T1, Actinomadura R39 DD-peptidase (Actinomadura sp., UniProt P39045); assay type: biochemical
[2] = molecular target: T1, Actinomadura R39 DD-peptidase; assay type: biochemical; remark: listed apart in the source
[3] = cited from earlier work
[4] = Hydration equilibrium of the carbonyl compounds in aqueous solution; assay type: physicochemical; conditions: from 1H NMR spectra
[5] = literature estimate; cited from earlier work

T1 sequence (P39045 50-538): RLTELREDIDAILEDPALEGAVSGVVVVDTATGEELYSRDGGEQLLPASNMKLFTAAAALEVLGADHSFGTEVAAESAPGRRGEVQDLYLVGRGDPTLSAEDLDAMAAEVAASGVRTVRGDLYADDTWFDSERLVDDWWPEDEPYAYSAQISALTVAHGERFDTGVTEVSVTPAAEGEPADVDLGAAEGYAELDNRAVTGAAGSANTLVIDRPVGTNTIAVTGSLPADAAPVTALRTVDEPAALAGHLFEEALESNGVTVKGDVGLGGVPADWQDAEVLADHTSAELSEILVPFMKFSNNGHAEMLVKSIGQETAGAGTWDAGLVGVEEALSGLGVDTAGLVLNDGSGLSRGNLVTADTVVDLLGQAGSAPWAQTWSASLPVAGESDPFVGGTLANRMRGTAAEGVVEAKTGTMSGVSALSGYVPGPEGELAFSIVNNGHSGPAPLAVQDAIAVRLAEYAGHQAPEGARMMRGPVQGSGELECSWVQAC

SMILES: C[C@@H](SC(=O)CNC(=O)Cc1ccccc1)C(=O)O [Compound 14, (Phenylacetyl)glycyl-D-thiolactate, reference compound]
- Km (B. subtilis PBP4a; read-out: Km of the substrate, PBP4a, 20 mM MOPS pH 7.50, 25 °C): 440 ± 80 µM

SMILES: CC(NC(=O)CCCC[C@@H](N)C(=O)O)C(=O)C(F)(F)F (stereo partly drawn) [Compound 12, D-α-Aminopimelyl-(1,1,1-trifluoro-3-amino)butan-2-one]
- Ki [1]: 170 nM
- Ki (B. subtilis PBP4a): 13500 nM
- Time dependence of inhibition, PBP4a (B. subtilis PBP4a): No time dependence
- Ki [2]: 370 nM
- Time dependence of inhibition, R39 DD-peptidase [2]: No time dependence

SMILES: OCC(F)(F)F [trifluoroethanol]
- pKa [3]: 12.4

SMILES: C[C@H](C=O)NC(=O)CCCC[C@@H](N)C(=O)O [Compound 11]
- KH (hydration equilibrium constant [IOH2]/[I]) [4]: 30
- Time dependence of inhibition, PBP4a (B. subtilis PBP4a): No time dependence
- Time dependence of inhibition, R39 DD-peptidase [2]: No time dependence

SMILES: CC(=O)C(F)(F)F [trifluoroacetone]
- KH, lower limit estimate [5]: ≥ 35
